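How tested: cells in 96-well plates exposed to compound for 48 hours at five concentrations. TGI: total growth inhibition.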
How the values were obtained:
Assay in all cases: NCI anticancer screen, dose series, 48 h
EKVX NSCLC = test system: EKVX NSCLC
IGROV1 ovarian = test system: IGROV1 ovarian
HOP-92 NSCLC = test system: HOP-92 NSCLC
KM12 colon = test system: KM12 colon
NCI-H522 lung = test system: NCI-H522 lung
786-0 renal = test system: 786-0 renal
HCC-2998 colon = test system: HCC-2998 colon
MDA-MB-435 = test system: MDA-MB-435
MALME-3M melanoma = test system: MALME-3M melanoma
A549 NSCLC = test system: A549 NSCLC
NCI-H460 lung = test system: NCI-H460 lung
T-47D breast = test system: T-47D breast
HL-60(TB) leukemia = test system: HL-60(TB) leukemia
SF-268 CNS = test system: SF-268 CNS
MOLT-4 leukemia = test system: MOLT-4 leukemia
RPMI-8226 leukemia = test system: RPMI-8226 leukemia
SNB-19 CNS = test system: SNB-19 CNS
CCRF-CEM leukemia = test system: CCRF-CEM leukemia
PC-3 prostate = test system: PC-3 prostate
A498 renal = test system: A498 renal
UO-31 renal = test system: UO-31 renal
SK-MEL-2 melanoma = test system: SK-MEL-2 melanoma
OVCAR-3 ovarian = test system: OVCAR-3 ovarian
UACC-257 melanoma = test system: UACC-257 melanoma
RXF 393 renal = test system: RXF 393 renal
MDA-N = test system: MDA-N
LOX IMVI melanoma = test system: LOX IMVI melanoma
HCT-116 colon = test system: HCT-116 colon
U251 CNS = test system: U251 CNS
ACHN renal = test system: ACHN renal
NCI-H23 lung = test system: NCI-H23 lung
HCT-15 colon = test system: HCT-15 colon
DU-145 prostate = test system: DU-145 prostate
SK-MEL-5 melanoma = test system: SK-MEL-5 melanoma
COLO 205 colon = test system: COLO 205 colon
HT29 colon = test system: HT29 colon
BT-549 breast = test system: BT-549 breast
HOP-62 NSCLC = test system: HOP-62 NSCLC
SF-539 CNS = test system: SF-539 CNS
M14 melanoma = test system: M14 melanoma
SF-295 CNS = test system: SF-295 CNS
NCI-H226 lung = test system: NCI-H226 lung
K-562 leukemia = test system: K-562 leukemia
UACC-62 melanoma = test system: UACC-62 melanoma
CAKI-1 renal = test system: CAKI-1 renal
OVCAR-8 ovarian = test system: OVCAR-8 ovarian
OVCAR-4 ovarian = test system: OVCAR-4 ovarian
SK-MEL-28 melanoma = test system: SK-MEL-28 melanoma
NCI/ADR-RES ovarian = test system: NCI/ADR-RES ovarian
SK-OV-3 ovarian = test system: SK-OV-3 ovarian
SNB-75 CNS = test system: SNB-75 CNS
SW-620 colon = test system: SW-620 colon
SN12C renal = test system: SN12C renal
HS 578T breast = test system: HS 578T breast
TK-10 renal = test system: TK-10 renal
OVCAR-5 ovarian = test system: OVCAR-5 ovarian
SR leukemia = test system: SR leukemia
MDA-MB-231 breast = test system: MDA-MB-231 breast
MCF7 breast = test system: MCF7 breast

Measured: TGI

O=C(O)C(Cc1c[nH]c2ccccc12)C(=O)NO (centres undefined)
> 100 µM: all assays above
